# In patent US6916478B2, “Vaccines and pharmaceutical compositions using membrane vesicles of microorganisms, and methods for preparing same” (priority 1995, dated 2005):
# Experiments:
# P. aeruginosa 8803 [1] = assay: Bactericidal activity (viable counting 0-5 h); assay type: cell-based, Pseudomonas aeruginosa; conditions: MVs 100 μg protein/ml, gentamicin 100 μg/ml, FIG. 23(d)
# Experimental: (§1) Bacteriolytic activity. […] Exponential growth phase cultures grown in TSB were diluted in fresh TSB to produce a bacterial suspension of 10^8 CFU/ml.
# P. aeruginosa PAO1 [2] = assay: Bactericidal activity (viable counting 0-5 h); assay type: cell-based, Pseudomonas aeruginosa; conditions: MVs 100 μg protein/ml, gentamicin 2.5×MIC, FIG. 23(c)
# Experimental: as §1
# [3] = tested on: intracellular S. flexneri; assay: g-MV effect on intracellular S. flexneri in infected human colonic epithelial cells; assay type: cell-based, Shigella flexneri; conditions: FIG. 17
# Experimental: Incubation of g-MVs (25 μg MV protein/25 cm^2 cover slip) with S. flexneri infected human colonic epithelial cells (10^7 CFU/25 cm^2 cover slip) (Kadurugamuwa et al, 1991 Infect. Immun. 59:3464-3471) inhibited the multiplication of intracellular bacteria by approximately 88% in the first hour of incubation (FIG. 17). […] Gentamicin could only enter these cells because it was packaged into a bilayered MV which could […] with the otherwise impermeable membrane and liberate its contents into the cytoplasm. Soluble antibiotic had no effect on growth of intracellular bacteria confirming the impermeability of eucaryotic cell membrane to the antibiotic (FIG. 17). […] The small effect of n-MVs on intracellular bacteria was presumably due to murein hydrolases in n-MVs.
# Escherichia coli DH5α = assay: Antibiotic susceptibility (broth dilution in Muller-Hinton broth); assay type: cell-based
# Experimental: (§2) Antibiotic susceptibility. The susceptibilities of bacterial strains to gentamicin (Sigma) were determined by broth dilution method in Muller-Hinton broth (Kadurugamuwa, J. L. et al, 1993 Antimicrob. Agents Chemother. 37:715-721). The MICs for PAO1, 8803, D2C, and DH5α were 2, 128 (10), 1.0, and 1.0 μg/ml, respectively.
# [4] = tested on: Staphylococcus aureus Newman D2C; assay: as above; assay type: cell-based
# Experimental: as §2
# P. aeruginosa 8803 [5] = assay: as above; assay type: cell-based, Pseudomonas aeruginosa; conditions: 8803 (permeability-type gentamicin resistance)
# Experimental: as §2
# P. aeruginosa PAO1 [6] = assay: as above; assay type: cell-based, Pseudomonas aeruginosa
# Experimental: as §2
# [7] = tested on: P. aeruginosa strain ATCC 19660; assay: Antibiotic susceptibility test (MIC of gentamicin by dilution in MHB); assay type: cell-based, Pseudomonas aeruginosa; conditions: strain ATCC 19660, dilution in MHB
# Experimental: (§3) Antibiotic susceptibility test. The Minimum Inhibitory Concentrations (MICs) of gentamicin were determined by dilution in MHB. The MICs for strains H 103 and ATCC 19660 were 2 and 2.5 μg/ml, respectively.
# [8] = tested on: P. aeruginosa strain H 103; assay: as above; assay type: cell-based, Pseudomonas aeruginosa; conditions: strain H 103, dilution in MHB
# Experimental: as §3
substance,measurement,setting,value
gentamicin,lytic effect on P. aeruginosa 8803 culture,P. aeruginosa 8803 [1],(almost) direct correspondence between the control culture and the culture subjected to soluble gentamicin
same,loss of viability of P. aeruginosa PAO1,P. aeruginosa PAO1 [2],exquisitely sensitive
same,effect on growth of intracellular bacteria,[3],no effect
same,MIC,Escherichia coli DH5α,1.0 µg/mL
same,MIC,[4],1.0 µg/mL
same,MIC,P. aeruginosa 8803 [5],128 µg/mL
same,MIC,P. aeruginosa PAO1 [6],2 µg/mL
same,Minimum Inhibitory Concentration (MIC),[7],2.5 µg/mL
same,Minimum Inhibitory Concentration (MIC),[8],2 µg/mL
